Values joined by “and” are separate entries in the source; they are usually repeats but may differ in a detail not shown here. Equal values may be shown once. Numbers after ± are expanded uncertainties.
Legend:
[1] = for molar entropy: 101.33 kPa, Small (less than 1 g) adiabatic calorimetry; for vapor or sublimation pressure: Calculated from knudsen effusion weight loss; for Triple point temperature: DTA
[2] = molar heat capacity at constant pressure; conditions: 101.33 kPa, Crystal 2, Small (less than 1 g) adiabatic calorimetry

O[C@@H]1[C@@H](O)[C@@H]2OC[C@@H](O2)[C@H]1O [1,6-anhydro-β-D-glucopyranose]
[1]
Conditions	molar entropy [J/K/mol]	vapor or sublimation pressure
5 K, Crystal 2	0.145 ± 0.026	–
10 K, Crystal 2	0.302 ± 0.029	–
15 K, Crystal 2	1.222 ± 0.047	–
20 K, Crystal 2	2.884 ± 0.072	–
25 K, Crystal 2	5.162 ± 0.095	–
30 K, Crystal 2	7.89 ± 0.17	–
35 K, Crystal 2	10.92 ± 0.19	–
40 K, Crystal 2	14.15 ± 0.21	–
45 K, Crystal 2	17.49 ± 0.24	–
50 K, Crystal 2	20.92 ± 0.26	–
60 K, Crystal 2	27.86 ± 0.32	–
70 K, Crystal 2	34.84 ± 0.38	–
80 K, Crystal 2	41.77 ± 0.42	–
90 K, Crystal 2	48.63 ± 0.52	–
100 K, Crystal 2	55.42 ± 0.57	–
110 K, Crystal 2	62.19 ± 0.62	–
120 K, Crystal 2	68.89 ± 0.67	–
130 K, Crystal 2	75.51 ± 0.72	–
140 K, Crystal 2	82.05 ± 0.76	–
150 K, Crystal 2	88.52 ± 0.81	–
160 K, Crystal 2	94.93 ± 0.86	–
170 K, Crystal 2	101.3 ± 0.9	–
180 K, Crystal 2	107.6 ± 0.9	–
190 K, Crystal 2	113.9 ± 1	–
200 K, Crystal 2	120.2 ± 1	–
210 K, Crystal 2	126.4 ± 1.1	–
220 K, Crystal 2	132.6 ± 1.1	–
230 K, Crystal 2	138.9 ± 1.2	–
240 K, Crystal 2	145.1 ± 1.2	–
250 K, Crystal 2	151.3 ± 1.2	–
260 K, Crystal 2	157.5 ± 1.3	–
270 K, Crystal 2	163.7 ± 1.4	–
280 K, Crystal 2	170 ± 1.4	–
290 K, Crystal 2	176.3 ± 1.4	–
298.15 K, Crystal 2	181.4 ± 1.4	–
300 K, Crystal 2	182.5 ± 1.4	–
310 K, Crystal 2	188.8 ± 1.6	–
320 K, Crystal 2	195.1 ± 1.6	–
330 K, Crystal 2	201.5 ± 1.6	–
340 K, Crystal 2	207.9 ± 1.6	–
350 K, Crystal 2	214.4 ± 1.8	–
353.55 K, Crystal 2	–	2.63e-05 ± 1.7e-06 kPa
353.56 K, Crystal 2	–	2.36e-05 ± 1.5e-06 kPa
358.59 K, Crystal 2	–	4.61e-05 ± 2.9e-06 kPa
360 K, Crystal 2	220.9 ± 1.8	–
363.6 K, Crystal 2	–	8.11e-05 ± 5.1e-06 kPa
368.61 K, Crystal 2	–	0.00014 ± 9e-06 kPa
368.62 K, Crystal 2	–	0.000141 ± 9e-06 kPa and 0.00014 ± 9e-06 kPa
370 K, Crystal 2	227.4 ± 1.8	–
373.63 K, Crystal 2	–	0.000248 ± 1.5e-05 kPa and 0.000254 ± 1.6e-05 kPa
373.64 K, Crystal 2	–	0.000243 ± 1.5e-05 kPa
378.63 K, Crystal 2	–	0.00041 ± 2.6e-05 kPa
378.64 K, Crystal 2	–	0.000426 ± 2.7e-05 kPa
378.65 K, Crystal 2	–	0.000416 ± 2.6e-05 kPa
380 K, Crystal 2	234.1 ± 1.9	–
383.65 K, Crystal 2	–	0.000688 ± 4.2e-05 kPa and 0.000723 ± 4.5e-05 kPa
383.66 K, Crystal 2	–	0.000727 ± 4.5e-05 kPa and 0.000742 ± 4.6e-05 kPa
384 K, Crystal 1	301.8 ± 2.6	–
384 K, Crystal 2	236.7 ± 1.9	–

Conditions	Triple point temperature [K]	molar heat capacity at constant pressure [J/K/mol]
[1], Crystal 1	454 ± 1	–
[1], Crystal 2	384 ± 1	–
[2], 5 K	–	0.138 ± 0.018
[2], 10 K	–	1.118 ± 0.032
[2], 15 K	–	3.898 ± 0.065
[2], 20 K	–	7.99 ± 0.091
[2], 25 K	–	12.65 ± 0.12
[2], 30 K	–	17.41 ± 0.15
[2], 35 K	–	22.01 ± 0.17
[2], 40 K	–	26.36 ± 0.2
[2], 45 K	–	30.52 ± 0.22
[2], 50 K	–	34.47 ± 0.24
[2], 60 K	–	41.86 ± 0.28
[2], 70 K	–	48.71 ± 0.31
[2], 80 K	–	55.17 ± 0.35
[2], 90 K	–	61.41 ± 0.4
[2], 100 K	–	67.71 ± 0.43
[2], 110 K	–	74.28 ± 0.46
[2], 120 K	–	79.92 ± 0.49
[2], 130 K	–	85.48 ± 0.51
[2], 140 K	–	91.03 ± 0.54
[2], 150 K	–	96.6 ± 0.57
[2], 160 K	–	102.2 ± 0.6
[2], 170 K	–	107.8 ± 0.6
[2], 180 K	–	113.5 ± 0.7
[2], 190 K	–	119.2 ± 0.7
[2], 200 K	–	125 ± 0.7
[2], 210 K	–	130.9 ± 0.7
[2], 220 K	–	136.9 ± 0.7
[2], 230 K	–	143 ± 0.8
[2], 240 K	–	149.2 ± 0.8
[2], 250 K	–	155.5 ± 0.8
[2], 260 K	–	162 ± 0.9
[2], 270 K	–	168.5 ± 0.9
[2], 280 K	–	175.1 ± 0.9
[2], 290 K	–	181.7 ± 1
[2], 298.15 K	–	187.2 ± 1
[2], 300 K	–	188.5 ± 1
[2], 310 K	–	195.5 ± 1.1
[2], 320 K	–	202.7 ± 1.1
[2], 330 K	–	210.3 ± 1.1
[2], 340 K	–	218.6 ± 1.2
[2], 350 K	–	227.1 ± 1.2
[2], 360 K	–	235.5 ± 1.2
[2], 370 K	–	244 ± 1.3
[2], 380 K	–	252.5 ± 1.3
[2], 384 K	–	255.9 ± 1.3
